Assay results taken from patent US11130769B2 (Prelude Therapeutics Incorporated, priority 2018, dated 2021).

Tests used:
H929 cells = experiment: Cell viability assay (H929 10 FBS); format: cell-based; settings: Homo sapiens, NCI-H929, 24 hours, read-out: H929_10FBS IC50
Method in brief: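 H929 cells, 4000/well, in RPMI 1640 with 10% FBS, sodium pyruvate, HEPES and glucose were exposed to compound 24 h at 37 °C. Viability read as luminescence after 30-60 min at RT with CellTiter-Glo or ATPlite 1 Step.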

MCL-1 = MCL-1 (Homo sapiens (Human), UniProt Q07820); experiment: Cell free Mcl-1:Bim affinity assay (fluorescence polarization competition); format: binding; settings: 15 nM MCL-1, 5 nM FITC-Bim, 1 hour at room temperature; class symbols; read-out: BIM_Ki
Method in brief: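 Compounds competed with FITC-labelled Bim peptide (5 nM) for MCL-1 (15 nM) in HEPES/NaCl buffer with 1% DMSO, 1 h at room temperature. Fluorescence polarization (535 nm emission) gave % inhibition versus DMSO and positive controls; IC50 from 10-point curves, converted to Ki by the Nikolovska-Coleska equation.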

Sequence of MCL-1 (Q07820 whole entry): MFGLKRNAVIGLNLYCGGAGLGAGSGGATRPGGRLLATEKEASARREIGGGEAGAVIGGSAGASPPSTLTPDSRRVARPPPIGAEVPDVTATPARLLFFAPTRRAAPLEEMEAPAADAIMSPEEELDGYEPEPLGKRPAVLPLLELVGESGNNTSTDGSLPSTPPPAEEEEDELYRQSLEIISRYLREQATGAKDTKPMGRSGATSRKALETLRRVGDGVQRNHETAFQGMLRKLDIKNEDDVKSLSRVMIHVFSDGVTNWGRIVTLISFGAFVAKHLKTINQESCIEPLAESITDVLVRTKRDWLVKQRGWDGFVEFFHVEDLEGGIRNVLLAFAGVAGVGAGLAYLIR

IC50 (H929 cells) [nM] | Ki (MCL-1) [nM] | Structure (SMILES)
< 1000 | < 1 | CN(C(=O)O[C@H]1/C=C/COC(C)(C)C(=O)NS(=O)(=O)c2ccc3c(c2)N(C[C@@H]2CC[C@H]21)C[C@]1(CO3)OCCc2cc(Cl)ccc21)C1CCOCC1 [Example 300, [(3R,6R,7S,8E,22R)-6′-Chloro-12,12-dimethyl-13,15,15-trio-spiro[11,20-dioxa-15-thia-1,14-diazatetracyclo[14.7.2.03,6.019,24]pentacosa-8,16,18,24-tetraene-22,1′-isochromane]-7-yl] N-methyl-N-tetrahydropyran-4-yl-carbamate]
< 500 | 1 to 100 | CN1C/C=C/[C@H](OC(=O)NCC2CC2)[C@@H]2CC[C@H]2CN2C[C@@]3(CCCc4cc(Cl)ccc43)COc3ccc(cc32)S(=O)(=O)NC(=O)C1(C)C [Example 205, [(3R,6R,7S,8E,22S)-6′-Chloro-11,12,12-trimethyl-13,15,15-trioxo-spiro[20-oxa-15-thia-1,11,14-triazatetracyclo[14.7.2.03,6.019,24]pentacosa-8,16,18,24-tetraene-22,1′-tetralin]-7-yl] N-(cyclopropylmethyl)carbamate]
< 500 | < 1 | CC1(C)OC/C=C/[C@H](OCC(=O)N2CCCC2)[C@@H]2CC[C@H]2CN2C[C@@]3(CCCc4cc(Cl)ccc43)COc3ccc(cc32)S(=O)(=O)NC1=O [Example 283, (3R,6R,7S,8E,22S)-6′-Chloro-12,12-dimethyl-15,15-dioxo-7-(2-oxo-2-pyrrolidin-1-yl-ethoxy)spiro[11,20-dioxa-15-thia-1,14-diazatetracyclo[14.7.2.03,6.019,24]pentacosa-8,16,18,24-tetraene-22,1′-tetralin]-13-one]
< 500 | < 1 | CN1C/C=C/[C@H](OC(=O)N2CCOCC2)[C@@H]2CC[C@H]2CN2C[C@@]3(CCCc4cc(Cl)ccc43)COc3ccc(cc32)S(=O)(=O)NC(=O)C1(C)C [Example 199, [(3R,6R,7S,8E,22S)-6′-Chloro-11,12,12-trimethyl-13,15,15-trioxo-spiro[20-oxa-15-thia-1,11,14-triazatetracyclo[14.7.2.03,6.019,24]pentacosa-8,16,18,24-tetraene-22,1′-tetralin]-7-yl]morpholine-4-carboxylate]
< 1000 | < 1 | CN(C(=O)O[C@H]1/C=C/COC(C)(C)C(=O)NS(=O)(=O)c2ccc3c(c2)N(C[C@@H]2CC[C@H]21)C[C@]1(CO3)OCCc2cc(Cl)ccc21)C1COC1 [Example 298, [(3R,6R,7S,8E,22R)-6′-Chloro-12,12-dimethyl-13,15,15-trioxo-spiro[11,20-dioxa-15-thia-1,14-diazatetracyclo[14.7.2.03,6.019,24]pentacosa-8,16,18,24-tetraene-22,1′-isochromane]-7-yl] N-methyl-N-(oxetan-3-yl)carbamate]
< 500 | < 1 | CN(C(=O)O[C@H]1/C=C/CN(C)C2(CCC2)C(=O)NS(=O)(=O)c2ccc3c(c2)N(C[C@@H]2CC[C@H]21)C[C@@]1(CCCc2cc(Cl)ccc21)CO3)C1CCOCC1 [Example 239, [(3R,6R,7S,8E,22S)-6′-Chloro-11-methyl-12,12-(1,3-propylene)-13,15,15-trioxo-spiro[20-oxa-15-thia-1,11,14-triazatetracyclo[14.7.2.03,6.019,24]pentacosa-8,16,18,24-tetraene-22,1′-tetralin]-7-yl] N-methyl-N-tetrahydropyran-4-yl-carbamate]
< 500 | < 1 | [2H]C1([2H])/C=C/[C@H](OC(=O)N(C)C)[C@@H]2CC[C@H]2CN2C[C@@]3(CCCc4cc(Cl)ccc43)COc3ccc(cc32)S(=O)(=O)NC(=O)C(C)(C)O1 [Example 312, [(3R,6R,7S,8E,22S)-6′-Chloro-10,10-dideuterio-12,12-dimethyl-13,15,15-trioxo-spiro[11,20-dioxa-15-thia-1,14-diazatetracyclo[14.7.2.03,6.019,24]pentacosa-8,16,18,24-tetraene-22,1′-tetralin]-7-yl] N,N-dimethylcarbamate]
< 500 | < 1 | CO[C@@H]1CCN(C(=O)O[C@H]2/C=C/COC3(CCC3)C(=O)NS(=O)(=O)c3ccc4c(c3)N(C[C@@H]3CC[C@H]32)C[C@@]2(CCCc3cc(Cl)ccc32)CO4)C1 [Example 229, [(3R,6R,7S,8E,22S)-6′-Chloro-12,12-(1,3-propylene)-13,15,15-trioxo-spiro[11,20-dioxa-15-thia-1,14-diazatetracyclo[14.7.2.03,6.019,24]pentacosa-8,16,18,24-tetraene-22,1′-tetralin]-7-yl] (3S)-3-methoxypyrrolidine-1-carboxylate]

More lines, now with the values behind:

Structure (SMILES) | IC50 (H929 cells) [nM] | Ki (MCL-1) [nM]
CN(C)C(=O)CO[C@H]1/C=C/COC(C)(C)C(=O)NS(=O)(=O)c2ccc3c(c2)N(C[C@@H]2CC[C@H]21)C[C@@]1(CCCc2cc(Cl)ccc21)CO3 [Example 140, 2-[(3R,6R,7S,8E,22S)-6′-Chloro-12,12-dimethyl-13,15,15-trioxo-spiro[11,20-dioxa-15-thia-1,14-diazatetracyclo[14.7.2.03,6.019,24]pentacosa-8,16,18,24-tetraene-22,1′-tetralin]-7-yl]oxy-N,N-dimethyl-acetamide] | < 500 | < 1
CC1(C)OC/C=C/[C@H](OC(=O)N[C@H]2CCOC2)[C@@H]2CC[C@H]2CN2C[C@@]3(CCCc4cc(Cl)ccc43)COc3ccc(cc32)S(=O)(=O)NC1=O [Example 61, [(3R,6R,7S,8E,22S)-6′-Chloro-12,12-dimethyl-13,15,15-trioxo-spiro[11,20-dioxa-15-thia-1,14-diazatetracyclo[14.7.2.03,6.019,24]pentacosa-8,16,18,24-tetraene-22,1′-tetralin]-7-yl] N-[(3S)-tetrahydrofuran-3-yl]carbamate] | < 500 | < 1
CO[C@@H]1/C=C/CN(C)[C@H](C)C(=O)NS(=O)(=O)c2ccc3c(c2)N(C[C@@H]2CC[C@H]21)C[C@@]1(CCCc2cc(Cl)ccc21)CO3 [Example 123, (3R,6R,7R,8E,12R,22S)-6′-Chloro-7-methoxy-11,12-dimethyl-15,15-dioxo-spiro[20-oxa-15-thia-1,11,14-triazatetracyclo[14.7.2.03,6.019,24]pentacosa-8,16(25),17,19(24)-tetraene-22,1′-tetralin]-13-one] | < 1000 | 1 to 100
CC1(C)OC/C=C/[C@H](OC(=O)NC2CCC2)[C@@H]2CC[C@H]2CN2C[C@@]3(CCCc4cc(Cl)ccc43)COc3ccc(cc32)S(=O)(=O)NC1=O [Example 184, [(3R,6R,7S,8E,22S)-6′-Chloro-12,12-dimethyl-13,15,15-trioxo-spiro[11,20-dioxa-15-thia-1,14-diazatetracyclo[14.7.2.03,6.019,24]pentacosa-8,16,18,24-tetraene-22,1′-tetralin]-7-yl] N-cyclobutylcarbamate] | < 500 | < 1
CC1(C)OC/C=C/[C@@H](O)[C@@H]2CC[C@H]2CN2C[C@@]3(CCCc4cc(Cl)ccc43)COc3ccc(cc32)S(=O)(=O)NC1=O [Example 36, (3R,6R,7R,8E,22S)-6′-Chloro-7-hydroxy-12,12-dimethyl-15,15-dioxo-spiro[11,20-dioxa-15-thia-1,14-diazatetracyclo[14.7.2.03,6.019,24]pentacosa-8,16,18,24-tetraene-22,1′-tetralin]-13-one] | < 1000 | < 1
CNC(=O)O[C@H]1/C=C/COC(C)(C)C(=O)NS(=O)(=O)c2ccc3c(c2)N(C[C@@H]2CC[C@H]21)C[C@@]1(CCCc2cc(Cl)ccc21)CO3 [Example 50, [(3R,6R,7S,8E,22S)-6′-Chloro-12,12-dimethyl-13,15,15-trioxo-spiro[11,20-dioxa-15-thia-1,14-diazatetracyclo[14.7.2.03,6.019,24]pentacosa-8,16,18,24-tetraene-22,1′-tetralin]-7-yl] N-methylcarbamate] | < 500 | < 1
CO[C@@H]1/C=C/CCC2(CCC2)C(=O)NS(=O)(=O)c2ccc3c(c2)N(C[C@@H]2CC[C@H]21)C[C@@]1(CCCc2cc(Cl)ccc21)CO3 [Example 86, (3R,6R,7R,8E,22S)-6′-Chloro-7-methoxy-12,12-(1,3-propylene)-15,15-dioxo-spiro[[20]oxa-15-thia-1,14-diazatetracyclo[14.7.2.03,6.019,24]pentacosa[8,16(25),17,19(24)]tetraene-22,1′-tetralin]-13-one] | > 1000 | 1 to 100
CO[C@H]1/C=C/C[C@H](C)CC(=O)NS(=O)(=O)c2ccc3c(c2)N(C[C@@H]2CC[C@H]21)C[C@@]1(CCCc2cc(Cl)ccc21)CO3 [Example 82, (3R,6R,7S,8E,11S,22S)-6′-Chloro-7-methoxy-11-methyl-15,15-dioxo-spiro[20-oxa-15-thia-1,14-diazatetracyclo[14.7.2.03,6.019,24]pentacosa-8,16(25),17,19(24)-tetraene-22,1′-tetralin]-13-one] | > 1000 | 1 to 100
CON(C)C(=O)O[C@H]1/C=C/COC(C)(C)C(=O)NS(=O)(=O)c2ccc3c(c2)N(C[C@@H]2CC[C@H]21)C[C@@]1(CCCc2cc(Cl)ccc21)CO3 [Example 63, [(3R,6R,7S,8E,22S)-6′-Chloro-12,12-dimethyl-13,15,15-trioxo-spiro[11,20-dioxa-15-thia-1,14-diazatetracyclo[14.7.2.03,6.019,24]pentacosa-8,16,18,24-tetraene-22,1′-tetralin]-7-yl] N-methoxy-N-methyl-carbamate] | < 500 | < 1
